Results from patent US20200055883A1, “CYCLIC DI-NUCLEOTIDES DERIVATIVE FOR THE TREATMENT OF CANCER” (Eisai R&D Management Co., Ltd., priority 2017, published 2020).
Where two headings read alike, the source gives them in different places.

What was measured:
AQ Human STING = AQ Human STING (Homo sapiens, UniProt Q86WV6, G230A/H232R/R293Q); experiment: STING variant specific reporter assay, AQ-STING (THP1-Dual KO-STING cells); conditions: ammonium salt form of each compound
REF Human STING = REF Human STING (Homo sapiens, UniProt Q86WV6); experiment: STING variant specific reporter assay, REF-STING (THP1-Dual KO-STING cells)
Human STING HAQ = Human STING HAQ (Homo sapiens, UniProt Q86WV6, G230A/H232R/R293Q/R71H); experiment: HAQ STING agonist activity reporter assay (THP1-Dual cells)
WT Human STING = WT Human STING (Homo sapiens, UniProt Q86WV6, H232R); experiment: STING variant specific reporter assay, WT-STING (THP1-Dual KO-STING cells); conditions: Human STING EC50 (μM) WT, ammonium salt form of each compound
[1] = Human STING EC50 (μM) AQ, Table 5
[2] = Human STING EC50 (μM) HAQ, Table 5, ammonium salt form of each compound, 20 hrs
[3] = hSTING EC50 (μM) HAQ, Table 6, ammonium salt form, except Compounds 26, 33, 34 tested as bis-TEA salts
[4] = Human STING EC50 (μM) HAQ, Table 4, ammonium salt form of each compound, 20 hrs
[5] = Human STING EC50 (μM) AQ, Table 4
[6] = hSTING EC50 (μM) HAQ, Table 8, ammonium salt form of each compound

Sequence of AQ Human STING (Q86WV6 whole entry G230A/H232R/R293Q): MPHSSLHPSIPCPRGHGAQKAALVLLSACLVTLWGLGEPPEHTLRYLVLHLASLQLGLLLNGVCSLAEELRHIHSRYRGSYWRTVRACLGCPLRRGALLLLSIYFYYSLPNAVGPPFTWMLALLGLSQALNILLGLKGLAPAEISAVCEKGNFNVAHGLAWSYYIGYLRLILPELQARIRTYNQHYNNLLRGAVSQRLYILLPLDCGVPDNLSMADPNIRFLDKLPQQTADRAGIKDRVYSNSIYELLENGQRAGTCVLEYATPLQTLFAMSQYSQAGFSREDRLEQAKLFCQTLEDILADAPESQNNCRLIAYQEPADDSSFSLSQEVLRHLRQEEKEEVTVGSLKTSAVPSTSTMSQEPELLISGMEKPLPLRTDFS
Sequence of Human STING HAQ (Q86WV6 whole entry R71H/G230A/H232R/R293Q): as the sequence (Q86WV6 whole entry G230A/H232R/R293Q) above, with R71H counted along it
Sequence of REF Human STING (Q86WV6 whole entry): as the sequence (Q86WV6 whole entry G230A/H232R/R293Q) above, with A230G, R232H, Q293R counted along it
Sequence of WT Human STING (Q86WV6 whole entry H232R): as the sequence (Q86WV6 whole entry G230A/H232R/R293Q) above, with A230G, Q293R counted along it

In the case of `O=P1(S)OC[C@H]2O[C@@H]3[C@H](F)[C@@H]2OP(=O)(S)OC[C@H]2OC([C@H](F)[C@@H]2O1)n1cnc2c(ncnc21)NCC/C=C/CNc1ncnc2c1ncn23` (single isomer, unassigned) [Compound 8], the EC50 (AQ Human STING; [1]) is reported as 81 µM, the EC50 (REF Human STING) is reported as greater than 100 µM and the EC50 (Human STING HAQ; [2]) is reported as 69.7 µM. For the same molecule, the EC50 (WT Human STING; Table 5) was 68.7 µM.

With `O=P1(S)OC[C@H]2O[C@@H]3[C@H](F)[C@@H]2OP(=O)(S)OC[C@H]2OC([C@H](F)[C@@H]2O1)n1cnc2c(ncnc21)NCC/C=C/CNc1ncnc2c1ncn23` (single isomer, unassigned) [Compound 11] the EC50 (Human STING HAQ; [2]) was 6.8 µM.

With `O=P1(S)OC[C@H]2O[C@@H]3[C@H](F)[C@@H]2OP(=O)(S)OC[C@H]2OC([C@H](F)[C@@H]2O1)n1cnc2c(ncnc21)NCC/C=C/CNc1ncnc2c1ncn23` (single isomer, unassigned) [Compound 12] the EC50 (Human STING HAQ; [2]) was 8.2 µM.

Work on `O=P1(S)OC[C@H]2O[C@@H]3[C@H](F)[C@@H]2OP(=O)(S)OC[C@H]2O[C@H]([C@H](F)[C@@H]2O1)n1cnc2c(ncnc21)NC/C=C/COc1ncnc2c1ncn23` (single isomer, unassigned) [Compound 18] yielded an EC50 (Human STING HAQ; [3]) of 2.3 µM.

With `O=P1(S)OC[C@H]2O[C@@H]3[C@H](F)[C@@H]2OP(=O)(S)OC[C@H]2O[C@H]([C@H](F)[C@@H]2O1)n1cnc2c(ncnc21)NC/C=C/COc1ncnc2c1ncn23` (single isomer, unassigned) [Compound 19] the EC50 (Human STING HAQ; [3]) was 94.1 µM.

`O=P1(S)OC[C@H]2O[C@@H]3[C@H](F)[C@@H]2OP(=O)(S)OC[C@H]2O[C@H]([C@H](F)[C@@H]2O1)n1cnc2c(ncnc21)NC/C=C/COc1ncnc2c1ncn23` (single isomer, unassigned) [Compound 20] showed an EC50 (Human STING HAQ; [3]) of 2.8 µM.

`Nc1nc2c3ncn(c3n1)[C@@H]1O[C@@H]3COP(O)(=S)O[C@H]4[C@@H](F)[C@@H](O[C@@H]4COP(O)(=S)O[C@H]3[C@H]1F)n1cnc3c(ncnc31)NC/C=C/CO2` (single isomer, unassigned) [Compound 21] gave an EC50 (Human STING HAQ; hSTING EC50 (μM) HAQ) of 83.3 µM.

Work on `Nc1nc2c3ncn(c3n1)[C@@H]1O[C@@H]3COP(O)(=S)O[C@H]4[C@@H](F)[C@@H](O[C@@H]4COP(O)(=S)O[C@H]3[C@H]1F)n1cnc3c(ncnc31)NC/C=C/CO2` (single isomer, unassigned) [Compound 22] yielded an EC50 (Human STING HAQ; hSTING EC50 (μM) HAQ) of 41.2 µM.

`O=[P@]1(S)OC[C@H]2OC3[C@H](F)[C@@H]2O[P@](=O)(S)OC[C@H]2O[C@H]([C@H](F)[C@@H]2O1)n1cnc2c(ncnc21)NCC1NC1CNc1ncnc2c1ncn23` (single isomer, unassigned) [Compound 35] showed an EC50 (Human STING HAQ; [3]) of 44.5 µM.

With `O=[P@]1(S)OC[C@H]2OC3[C@H](F)[C@@H]2O[P@](=O)(S)OC[C@H]2O[C@H]([C@H](F)[C@@H]2O1)n1cnc2c(ncnc21)NCC1NC1CNc1ncnc2c1ncn23` (single isomer, unassigned) [Compound 36] the EC50 (Human STING HAQ; [3]) was 31.4 µM.

`O=P1(S)OC[C@H]2O[C@@H]3[C@H](F)[C@@H]2OP(=O)(S)OC[C@H]2OC([C@H](F)[C@@H]2O1)n1cnc2c(ncnc21)NCC/C=C/CNc1ncnc2c1ncn23` (single isomer, unassigned) [Compound 37] was tested, and the EC50 (AQ Human STING; [1]) was 82.2 µM, the EC50 (Human STING HAQ; [2]) was 87.2 µM and the EC50 (WT Human STING; Table 5) was greater than 100 µM.

`O=[P@]1(S)OC[C@H]2OC3[C@H](F)[C@@H]2O[P@](=O)(S)OC[C@H]2O[C@H]([C@H](F)[C@@H]2O1)n1cnc2c(ncnc21)NCCCCNc1ncnc2c1ncn23` [Compound 6] showed an EC50 (AQ Human STING; [1]) of 9 µM, an EC50 (REF Human STING) of 42 µM and an EC50 (Human STING HAQ; [2]) of 10.5 µM. For the same molecule, the EC50 (WT Human STING; Table 5) was 5.7 µM.

`O=P1(O)OC[C@H]2O[C@@H]3[C@H](F)[C@@H]2OP(=O)(O)OC[C@H]2OC([C@H](F)[C@@H]2O1)n1cnc2c(ncnc21)NC/C=C/CNc1ncnc2c1ncn23` [Compound 9] was tested, and the EC50 (AQ Human STING; [1]) was 30.9 µM, the EC50 (REF Human STING) was 31.7 µM and the EC50 (Human STING HAQ; [2]) was 39.2 µM. For the same molecule, the EC50 (WT Human STING; Table 5) was 18 µM.

`O=[P@]1(S)OC[C@H]2OC3[C@H](O)[C@@H]2O[P@](=O)(S)OC[C@H]2O[C@H]([C@H](O1)[C@@H]2O)n1cnc2c(ncnc21)NC/C=C/CNc1ncnc2c1ncn23` [Compound 13] was tested, and the EC50 (Human STING HAQ; [4]) was 26.7 µM.

`O=[P@@]1(S)OC[C@H]2OC3[C@H](O)[C@@H]2O[P@](=O)(S)OC[C@H]2O[C@H]([C@H](O1)[C@@H]2O)n1cnc2c(ncnc21)NC/C=C/CNc1ncnc2c1ncn23` [Compound 14] gave an EC50 (AQ Human STING; read-out: Human STING EC50 (μM) AQ, Table 4) greater than 100 µM, an EC50 (REF Human STING; read-out: Human STING EC50 (μM) REF, Table 4, ammonium salt form of each compound) greater than 100 µM and an EC50 (Human STING HAQ; [4]) of 58.2 µM. It also gave an EC50 (WT Human STING; Table 4) of 69.8 µM.

`O=[P@]1(S)OC[C@H]2OC3[C@H](F)[C@@H]2O[P@](=O)(S)OC[C@H]2O[C@H]([C@H](O1)[C@@H]2O)n1cnc2c(ncnc21)NC/C=C/CNc1ncnc2c1ncn23` [Compound 15] was tested, and the EC50 (AQ Human STING; [5]) was 13.1 µM, the EC50 (REF Human STING) was 66.7 µM and the EC50 (Human STING HAQ; [4]) was 24.7 µM. For the same molecule, the EC50 (WT Human STING; Table 4) was 11.6 µM.

`O=[P@@]1(S)OC[C@H]2OC3[C@H](F)[C@@H]2O[P@](=O)(S)OC[C@H]2O[C@H]([C@H](O1)[C@@H]2O)n1cnc2c(ncnc21)NC/C=C/CNc1ncnc2c1ncn23` [Compound 16] gave an EC50 (AQ Human STING; [5]) of 20.4 µM, an EC50 (REF Human STING) of 66.7 µM and an EC50 (Human STING HAQ; [4]) of 28.8 µM. The EC50 (WT Human STING; Table 4) was 25.7 µM.

`Nc1nc2c3ncn(c3n1)[C@@H]1O[C@@H]3COP(O)(=S)O[C@H]4[C@@H](F)[C@@H](O[C@@H]4COP(O)(=S)O[C@H]3[C@H]1F)n1cnc3c(ncnc31)NC/C=C/CO2` (stereo partly shown) [Compound 23] showed an EC50 (Human STING HAQ; hSTING EC50 (μM) HAQ) of 62.3 µM.

With `O=[P@@]1(S)OC[C@H]2O[C@@H]3[C@H](F)[C@@H]2O[P@](=O)(S)OC[C@H]2OC([C@H](F)[C@@H]2O1)n1cnc2c(ncnc21)OC/C=C/COc1ncnc2c1ncn23` [Compound 26] the EC50 (Human STING HAQ; [3]) was 2.3 µM.

For `O=P1(O)OC[C@H]2OC3[C@H](F)[C@@H]2O[P@@](O)(=S)OC[C@H]2O[C@H]([C@H](F)[C@@H]2O1)n1cnc2c(ncnc21)NC/C=C/CNc1ncnc2c1ncn23` [Compound 27], the EC50 (Human STING HAQ; hSTING EC50 (μM) HAQ) was 9.8 µM.

Work on `O=P1(O)OC[C@H]2OC3[C@H](F)[C@@H]2O[P@](O)(=S)OC[C@H]2O[C@H]([C@H](F)[C@@H]2O1)n1cnc2c(ncnc21)NC/C=C/CNc1ncnc2c1ncn23` [Compound 28] yielded an EC50 (Human STING HAQ; hSTING EC50 (μM) HAQ) of 10.2 µM.

With `O=[P@]1(S)OC[C@H]2OC3[C@H](F)[C@@H]2O[P@](=O)(S)OC[C@H]2O[C@H]([C@H](F)[C@@H]2O1)n1cnc2c(ncnc21)NCC#CCNc1ncnc2c1ncn23` [Compound 29] the EC50 (Human STING HAQ; [3]) was 0.62 µM.

Molecule `O=P1(S)OC[C@H]2OC3[C@H](OP(=O)(S)OC[C@H]4O[C@H]([C@H](O1)[C@@H]4O)n1cnc4c(ncnc41)NC/C=C/CNc1ncnc4c1ncn43)[C@@H]2O` (stereo partly shown) [Compound 31] has an EC50 (Human STING HAQ; hSTING EC50 (μM) HAQ, Table 7, ammonium salt form of each compound) of 20.2 µM.

`O=[P@]1(S)OC[C@H]2OC3[C@H](F)[C@@H]2O[P@](=O)(S)OC[C@H]2O[C@H]([C@H](F)[C@@H]2O1)n1cnc2c(ncnc21)NC[C@H](O)[C@@H](O)CNc1ncnc2c1ncn23` [Compound 32] was tested, and the EC50 (REF Human STING; read-out: hSTING EC50 (μM) REF, Table 6, ammonium salt form, except Compounds 26, 33, 34 tested as bis-TEA salts) was greater than 100 µM and the EC50 (Human STING HAQ; [3]) was 15.7 µM.

In the case of `O=[P@]1(S)OC[C@H]2OC3[C@H](F)[C@@H]2O[P@](=O)(S)OC[C@H]2O[C@H]([C@H](F)[C@@H]2O1)n1cnc2c(ncnc21)CC/C=C/CCc1ncnc2c1ncn23` [Compound 33], the EC50 (Human STING HAQ; [3]) is reported as 21.5 µM.

For `O=[P@@]1(S)OC[C@H]2O[C@@H]3[C@H](F)[C@@H]2O[P@](=O)(S)OC[C@H]2OC([C@H](F)[C@@H]2O1)n1cnc2c(ncnc21)CC/C=C/CCc1ncnc2c1ncn23` [Compound 34], the EC50 (Human STING HAQ; [3]) was 2.3 µM.

For `O=[P@]1(S)N[C@@H]2[C@H]3CO[P@](=O)(S)N[C@H]4[C@@H](O)[C@@H](O[C@@H]4CO1)n1cnc4c(ncnc41)NC/C=C/CNc1ncnc4c1ncn4C(O3)[C@@H]2O` [Compound 38], the EC50 (Human STING HAQ; [6]) was 79.9 µM.

`O=P1(S)N[C@@H]2[C@H]3COP(=O)(S)N[C@H]4[C@@H](O)[C@@H](O[C@@H]4CO1)n1cnc4c(ncnc41)NC/C=C/CNc1ncnc4c1ncn4C(O3)[C@@H]2O` (stereo partly shown) [Compound 39] gave an EC50 (Human STING HAQ; [6]) of 29.6 µM.
